{
  "source": "patent US10149838B2",
  "about": "“Small molecule securinine and norsecurinine analogs and their use in inhibiting myeloperoxidase” (MiRx Pharmaceuticals, LLC, priority 2013, dated 2018)",
  "data": [
    {"system": "some cell lines", "assay": "MTT cell survival assay (Roche), cell lines not specified", "assay_type": "cell-based", "settings": "cell culture conditions", "text": "The securinine analog MPO inhibitors have favorable in vitro and in vivo toxicity profiles.", "values": [
      {"smiles": "O=C1C=C2C=C[C@@H]3C[C@@]2(O1)[C@H]1CCCCN31", "note": "[MA1]", "in vitro toxicity (cell survival)": "higher toxicity effect on some cell lines"}
    ]},
    {"target": "T1, MPO (Homo sapiens, UniProt P05164)", "T1 sequence (P05164 49-745)": "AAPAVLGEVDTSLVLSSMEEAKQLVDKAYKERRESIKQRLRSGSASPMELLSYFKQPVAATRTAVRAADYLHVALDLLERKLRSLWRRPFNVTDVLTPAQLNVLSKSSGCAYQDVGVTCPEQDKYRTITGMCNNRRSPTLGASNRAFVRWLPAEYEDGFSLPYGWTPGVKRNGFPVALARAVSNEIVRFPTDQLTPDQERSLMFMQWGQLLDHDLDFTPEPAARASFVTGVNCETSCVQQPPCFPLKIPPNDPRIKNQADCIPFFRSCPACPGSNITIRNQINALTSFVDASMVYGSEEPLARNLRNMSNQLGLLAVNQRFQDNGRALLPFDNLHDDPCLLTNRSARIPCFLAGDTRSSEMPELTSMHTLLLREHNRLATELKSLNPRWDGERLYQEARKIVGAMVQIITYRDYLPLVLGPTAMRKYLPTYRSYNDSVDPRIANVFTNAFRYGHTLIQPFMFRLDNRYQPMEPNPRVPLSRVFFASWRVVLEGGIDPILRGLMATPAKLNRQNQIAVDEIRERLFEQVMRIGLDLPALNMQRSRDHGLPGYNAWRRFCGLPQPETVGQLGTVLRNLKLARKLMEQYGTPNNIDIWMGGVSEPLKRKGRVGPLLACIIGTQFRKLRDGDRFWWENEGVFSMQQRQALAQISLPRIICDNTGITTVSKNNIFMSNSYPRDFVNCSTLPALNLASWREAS", "assay": "Myeloperoxidase Inhibitor Screening Assay Kit (Cayman Chemical), chlorination activity", "assay_type": "biochemical", "parameters": "purchased Cayman Chemical 700170; concentration or dose not given beside the values", "settings": "Table 1; MPO inhibitory activity", "description": "The columns are represented as follows: A: Blank; B: Commercial inhibitor; C; Another commercial inhibitor (sc-204107); D: Securinine; E: INVS-MG-98B, F: 14-Iodosecurinine; G; INVS-MG-106B.\nThe analogs described herein were contacted against MPO and the biological activity was assessed. Tables 1 and 2 show representative biological activity examples and that the listed compounds are potent inhibitors of MPO, specifically that the analogs inhibit chlorination activity. The compounds were tested for MPO inhibitory activity using the Myeloperoxidase Inhibitor Screening Assay Kit (Cayman Chemical Cat #700170) as described in the manufacturers manual\nStudies were then aimed at establishing dose dependent relative chlorination activity results of securinine and norsecurinine analogs. As depicted in FIG. 4, the analogs of the present invention were extremely potent in inhibiting chlorination.", "units": {"% Activity": "%"}, "values": [
      {"smiles": "O=C1C=C2C[C@H](SCC(F)(F)F)[C@@H]3C[C@@]2(O1)[C@H]1CCCCN31", "note": "(stereo in doubt) [5B]", "% Activity": 83},
      {"smiles": "CC(C)CSC1CC2=CC(=O)O[C@@]23C[C@@H]1N1CCCC[C@@H]13", "note": "(stereo in doubt) [57A]", "% Activity": 86},
      {"smiles": "CC(C)CS[C@H]1CC2=CC(=O)O[C@@]23C[C@@H]1N1CCCC[C@@H]13", "note": "(stereo in doubt) [57B]", "% Activity": 2},
      {"smiles": "O=C1C=C2CC(SC34CC5CC(CC(C5)C3)C4)[C@@H]3C[C@@]2(O1)[C@H]1CCCCN31", "note": "(stereo partly drawn) [4A]", "% Activity": 1},
      {"smiles": "O=C1CC2(SCC(F)(F)F)CC(SCC(F)(F)F)[C@@H]3C[C@@]2(O1)[C@H]1CCCCN31", "note": "(stereo partly drawn) [5A]", "% Activity": 78},
      {"smiles": "O=C1C=C2CC(N3CCC(F)(F)C3)[C@@H]3C[C@@]2(O1)[C@H]1CCCCN31", "note": "(stereo partly drawn) [9A]", "% Activity": 46},
      {"smiles": "O=C1C=C2CC(SCC3CCCCCC3)[C@@H]3C[C@@]2(O1)[C@H]1CCCCN31", "note": "(stereo partly drawn) [16A]", "% Activity": 91},
      {"smiles": "CCCCCCCSC1CC2=CC(=O)O[C@@]23C[C@@H]1N1CCCC[C@@H]13", "note": "(stereo partly drawn) [19A]", "% Activity": 38},
      {"smiles": "CCN(CC)CCSC1CC2=CC(=O)O[C@@]23C[C@@H]1N1CCCC[C@@H]13", "note": "(stereo partly drawn) [21B]", "% Activity": 30},
      {"smiles": "O=C1C=C2CC(NCC3CC3)[C@@H]3C[C@@]2(O1)[C@H]1CCCCN31", "note": "(stereo partly drawn) [25B]", "% Activity": 99},
      {"smiles": "O=C1C=C2CC(NC3CC3)[C@@H]3C[C@@]2(O1)[C@H]1CCCCN31", "note": "(stereo partly drawn) [26A]", "% Activity": 83},
      {"smiles": "O=C1C=C2CC(NC3CCCC3)[C@@H]3C[C@@]2(O1)[C@H]1CCCCN31", "note": "(stereo partly drawn) [27B]", "% Activity": 46},
      {"smiles": "O=C1C=C2CC(NC3CCCCC3)[C@@H]3C[C@@]2(O1)[C@H]1CCCCN31", "note": "(stereo partly drawn) [28B]", "% Activity": 86},
      {"smiles": "O=C1C=C2CC(NC3CCCCCC3)[C@@H]3C[C@@]2(O1)[C@H]1CCCCN31", "note": "(stereo partly drawn) [29A]", "% Activity": 1},
      {"smiles": "O=C1C=C2CC(NC3CCCCCCC3)[C@@H]3C[C@@]2(O1)[C@H]1CCCCN31", "note": "(stereo partly drawn) [30A]", "% Activity": 78},
      {"smiles": "CC(C)SC1CC2=CC(=O)O[C@@]23C[C@@H]1N1CCCC[C@@H]13", "note": "(stereo partly drawn) [37B]", "% Activity": 97},
      {"smiles": "O=C1C=C2CC(NC3CC(O)C3)[C@@H]3C[C@@]2(O1)[C@H]1CCCCN31", "note": "(stereo partly drawn) [46B]", "% Activity": 99},
      {"smiles": "CCCSC1CC2=CC(=O)O[C@@]23C[C@@H]1N1CCCC[C@@H]13", "note": "(stereo partly drawn) [58C]", "% Activity": 30},
      {"smiles": "CO[C@H]1CC2=CC(=O)O[C@@]23C[C@@H]1N1CCCC[C@@H]13", "note": "[97-IIB]", "% Activity": 97},
      {"smiles": "CCCN(CC#CC1=C[C@@H]2C[C@@]3(OC(=O)C=C13)[C@H]1CCCCN21)CCC", "note": "[152A]", "% Activity": 18},
      {"smiles": "COc1ccc2cc(C#CC3=C[C@@H]4C[C@@]5(OC(=O)C=C35)[C@H]3CCCCN43)ccc2c1", "note": "[157B]", "% Activity": 80},
      {"smiles": "O=C1C=C2C(C#Cc3cccs3)=C[C@@H]3C[C@@]2(O1)[C@H]1CCCCN31", "note": "[170B]", "% Activity": 64},
      {"smiles": "C#CC1=C[C@@H]2C[C@@]3(OC(=O)C=C13)[C@H]1CCCCN21", "note": "[207A]", "% Activity": 99},
      {"smiles": "COc1cc(C#CC2=C[C@@H]3C[C@@]4(OC(=O)C=C24)[C@H]2CC[C@H](C(OC)OC)N32)cc(OC)c1", "note": "[222B]", "% Activity": 70},
      {"smiles": "O=C1C=C2CC(SCc3cccs3)[C@@H]3C[C@@]2(O1)[C@H]1CCCCN31", "note": "(stereo partly drawn) [INVS-MG-14B]", "% Activity": 83},
      {"smiles": "O=C(CCCC[C@@H]1SC[C@@H]2NC(=O)N[C@@H]21)NCCS[C@H]1CC2=CC(=O)O[C@@]23C[C@@H]1N1CCCC[C@@H]13", "note": "[SEC- BIO]", "% Activity": 32},
      {"smiles": "NCCSC1CC2=CC(=O)O[C@@]23C[C@@H]1N1CCCC[C@@H]13", "note": "(stereo partly drawn) [compound 105]", "% Activity": 99},
      {"smiles": "O=C1C=C2C=C[C@@H]3C[C@@]2(O1)[C@H]1CCCCN31", "note": "[securinine, Securinine]", "% Activity": 32}
    ]},
    {"target": "T1, MPO", "assay": "Biotin pull-down with streptavidin magnetic beads from HL60 cells, SDS-PAGE, MS and western blot", "assay_type": "binding", "parameters": "endogenous in cells; host or cells: HL60", "settings": "10 μM, 2 hr, biotin-conjugated", "description": "Only MPO (red) and H2O2 promoted a shift in the Soret peak, formation of a new band at 630 nm (blue).\nIt was next set about to investigate the molecular target of the analogs (FIG. 6A). Cultured HL60 cells were treated with either Biotin/Biotin-INVMG1 (securinine) (10 μM) for 2 hr and pull-down experiments using streptavidin magnetic beads were used to pulldown bound molecules, followed by SDS-PAGE analysis (FIG. 6B). […] This 80 kDa protein band was excised, digested with trypsin, and the tryptic digests then analyzed using Mass Spectroscopy. […] The proteins bound to streptavidin beads were next separated using SDS-PAGE and incubated then with anti-human MPO antibody. […] To further confirm the binding of INVMG1 to MPO, the MPO enzyme was incubated with and without INVMG184B/H2O2, and analyzed absorption maxima using UV/visible.", "values": [
      {"smiles": "O=C1C=C2C=C[C@@H]3C[C@@]2(O1)[C@H]1CCCCN31", "note": "[securinine, Securinine]", "binding to MPO in pull-down": "revealed the binding of MPO"}
    ]}
  ]
}
